Columns and labels:
Format in all cases: functional
M14 = test: Growth inhibition of human M14 cells assessed as cell growth at 10^-4 M by sulforhodamine B assay; conditions: read-out: Activity
[1] = Growth inhibition of human HCC2998 cells assessed as cell growth at 10^-8 M by sulforhodamine B assay; conditions: HCC 2998, read-out: Activity
MDA-MB-468 [2] = test: Growth inhibition of human MDA-MB-468 cells assessed as cell growth at 10^-8 M by sulforhodamine B assay; conditions: read-out: Activity
HOP-62 [3] = test: Growth inhibition of human HOP62 cells by sulforhodamine B assay
SK-OV-3 = test: Growth inhibition of human SKOV3 cells assessed as cell growth at 10^-4 M by sulforhodamine B assay; conditions: read-out: Activity
SN12C [4] = test: Growth inhibition of human SN12C cells assessed as cell growth at 10^-4 M by sulforhodamine B assay; conditions: read-out: Activity
BT-549 = test: Growth inhibition of human BT549 cells by sulforhodamine B assay
CCRF-CEM = test: Growth inhibition of human CCRF-CEM cells assessed as cell growth at 10^-8 M by sulforhodamine B assay; conditions: read-out: Activity
OVCAR-3 [5] = test: Growth inhibition of human OVCAR3 cells assessed as cell growth at 10^-6 M by sulforhodamine B assay; conditions: read-out: Activity
SK-MEL-5 = test: Growth inhibition of human SK-MEL-5 cells by sulforhodamine B assay
U-251 = test: Growth inhibition of human U251 cells by sulforhodamine B assay
MDA-MB-435 [6] = test: Growth inhibition of human MDA-MB-435 cells assessed as cell growth at 10^-4 M by sulforhodamine B assay; conditions: read-out: Activity
K562 [7] = test: Growth inhibition of human K562 cells assessed as cell growth at 10^-8 M by sulforhodamine B assay; conditions: read-out: Activity
MDA-MB-468 [8] = test: Growth inhibition of human MDA-MB-468 cells by sulforhodamine B assay
UACC-257 = test: Growth inhibition of human UACC257 cells assessed as cell growth at 10^-8 M by sulforhodamine B assay; conditions: read-out: Activity
HOP-62 [9] = test: Growth inhibition of human HOP62 cells assessed as cell growth at 10^-7 M by sulforhodamine B assay; conditions: read-out: Activity
PC-3 = test: Growth inhibition of human PC3 cells assessed as cell growth at 10^-6 M by sulforhodamine B assay; conditions: read-out: Activity
SNB-19 [10] = test: Growth inhibition of human SNB19 cells by sulforhodamine B assay
Malme-3M [11] = test: Growth inhibition of human MALME-3M cells assessed as cell growth at 10^-4 M by sulforhodamine B assay; conditions: read-out: Activity
SK-MEL-2 = test: Growth inhibition of human SK-MEL-2 cells assessed as cell growth at 10^-7 M by sulforhodamine B assay; conditions: read-out: Activity
MDA-MB-435 [12] = test: Growth inhibition of human MDA-MB-435 cells assessed as cell growth at 10^-6 M by sulforhodamine B assay; conditions: read-out: Activity
NCI-H522 = test: Growth inhibition of human NCI-H522 cells assessed as cell growth at 10^-7 M by sulforhodamine B assay; conditions: read-out: Activity
[13] = Growth inhibition of human Hs 578T cells assessed as cell growth at 10^-8 M by sulforhodamine B assay; conditions: read-out: Activity
SF-295 = test: Growth inhibition of human SF295 cells assessed as cell growth at 10^-4 M by sulforhodamine B assay; conditions: read-out: Activity
Malme-3M [14] = test: Growth inhibition of human MALME-3M cells assessed as cell growth at 10^-8 M by sulforhodamine B assay; conditions: read-out: Activity
IGROV-1 = test: Growth inhibition of human IGROV1 cells by sulforhodamine B assay
SNB-19 [15] = test: Growth inhibition of human SNB19 cells assessed as cell growth at 10^-7 M by sulforhodamine B assay; conditions: read-out: Activity
ACHN = test: Growth inhibition of human ACHN cells assessed as cell growth at 10^-4 M by sulforhodamine B assay; conditions: read-out: Activity
SN12C [16] = test: Growth inhibition of human SN12C cells by sulforhodamine B assay
HCT-15 = test: Growth inhibition of human HCT15 cells assessed as cell growth at 10^-6 M by sulforhodamine B assay; conditions: read-out: Activity
K562 [17] = test: Growth inhibition of human K562 cells by sulforhodamine B assay
SN12C [18] = test: Growth inhibition of human SN12C cells assessed as cell growth at 10^-6 M by sulforhodamine B assay; conditions: read-out: Activity
OVCAR-3 [19] = test: Growth inhibition of human OVCAR3 cells assessed as cell growth at 10^-4 M by sulforhodamine B assay; conditions: read-out: Activity
SNB-19 [20] = test: Growth inhibition of human SNB19 cells assessed as cell growth at 10^-8 M by sulforhodamine B assay; conditions: read-out: Activity
[21] = Growth inhibition of human HCC2998 cells assessed as cell growth at 10^-4 M by sulforhodamine B assay; conditions: HCC 2998, read-out: Activity
MDA-MB-231 = test: Growth inhibition of human MDA-MB-231 cells assessed as cell growth at 10^-4 M by sulforhodamine B assay; conditions: read-out: Activity
MDA-MB-468 [22] = test: Growth inhibition of human MDA-MB-468 cells assessed as cell growth at 10^-7 M by sulforhodamine B assay; conditions: read-out: Activity
NCI-H226 = test: Growth inhibition of human NCI-H226 cells assessed as cell growth at 10^-6 M by sulforhodamine B assay; conditions: read-out: Activity
MOLT-4 = test: Growth inhibition of human MOLT4 cells assessed as cell growth at 10^-8 M by sulforhodamine B assay; conditions: read-out: Activity
[23] = read-out: LC50 (the source's name)
[24] = read-out: pLC50 (the source's name) (converted)

CC1(C)C[C@@H](O)[C@]2(C(=O)O)CC[C@]3(C)C(=CC[C@@H]4[C@@]5(C)C/C(=C\C=C\c6ccccc6)C(=O)C(C)(C)[C@@H]5CC[C@]43C)[C@@H]2C1
growth at 100 µM (M14): -77%
growth at 0.01 µM [1]: 92%
growth at 0.01 µM (MDA-MB-468 [2]): 95%
GI50 (HOP-62 [3]; read-out: GI50): 4.72 µM
LC50 (concentration killing 50% of cells) (HOP-62 [3]; read-out: LC50): 83.5 µM
TGI (HOP-62 [3]; read-out: TGI): 21.2 µM
GI50 (HOP-62 [3]; read-out: pGI50 (converted)): 4.68 µM
LC50 (concentration killing 50% of cells) (HOP-62 [3]; read-out: pLC50 (converted)): 83.2 µM
TGI (HOP-62 [3]; read-out: pTGI (converted)): 21.4 µM
growth at 100 µM (SK-OV-3): -84%
growth at 100 µM (SN12C [4]): -92%
GI50 (BT-549; read-out: GI50): 3.84 µM
CC50 (BT-549; [23]): 55.9 µM
TGI (BT-549; read-out: TGI): 14.8 µM
GI50 (BT-549; read-out: pGI50 (converted)): 3.8 µM
CC50 (BT-549; [24]): 56.2 µM
TGI (BT-549; read-out: pTGI (converted)): 14.8 µM
growth at 0.01 µM (CCRF-CEM): 95%
growth at 1 µM (OVCAR-3 [5]): 92%
GI50 (SK-MEL-5; read-out: GI50): 1.76 µM
CC50 (SK-MEL-5; [23]): 6.11 µM
TGI (SK-MEL-5; read-out: TGI): 3.28 µM
GI50 (SK-MEL-5; read-out: pGI50 (converted)): 1.74 µM
CC50 (SK-MEL-5; [24]): 6.17 µM
TGI (SK-MEL-5; read-out: pTGI (converted)): 3.31 µM
GI50 (U-251; read-out: GI50): 2.58 µM
CC50 (U-251; [23]): 43.2 µM
TGI (U-251; read-out: TGI): 10.1 µM
GI50 (U-251; read-out: pGI50 (converted)): 2.57 µM
CC50 (U-251; [24]): 43.7 µM
TGI (U-251; read-out: pTGI (converted)): 10.2 µM
growth at 100 µM (MDA-MB-435 [6]): -43%
growth at 0.01 µM (K562 [7]): 114%
GI50 (MDA-MB-468 [8]; read-out: GI50): 3.3 µM
CC50 (MDA-MB-468 [8]; [23]): > 100 µM
TGI (MDA-MB-468 [8]; read-out: TGI): 12.7 µM
GI50 (MDA-MB-468 [8]; read-out: pGI50 (converted)): 3.31 µM
CC50 (MDA-MB-468 [8]; [24]): 37.2 µM
TGI (MDA-MB-468 [8]; read-out: pTGI (converted)): 12.6 µM
growth at 0.01 µM (UACC-257): 93%
growth at 0.1 µM (HOP-62 [9]): 91%
growth at 1 µM (PC-3): 80%
GI50 (SNB-19 [10]; read-out: GI50): 4.03 µM
CC50 (SNB-19 [10]; [23]): 44.5 µM
TGI (SNB-19 [10]; read-out: TGI): 16.5 µM
GI50 (SNB-19 [10]; read-out: pGI50 (converted)): 4.07 µM
CC50 (SNB-19 [10]; [24]): 44.7 µM
TGI (SNB-19 [10]; read-out: pTGI (converted)): 16.6 µM
growth at 100 µM (Malme-3M [11]): -60%
growth at 0.1 µM (SK-MEL-2): 91%
growth at 1 µM (MDA-MB-435 [12]): 95%
growth at 0.1 µM (NCI-H522): 94%
growth at 0.01 µM [13]: 97%
growth at 100 µM (SF-295): -66%
growth at 0.01 µM (Malme-3M [14]): 92%
GI50 (IGROV-1; read-out: GI50): 4.14 µM
CC50 (IGROV-1; [23]): 73.8 µM
TGI (IGROV-1; read-out: TGI): 14.4 µM
GI50 (IGROV-1; read-out: pGI50 (converted)): 4.17 µM
CC50 (IGROV-1; [24]): 74.1 µM
TGI (IGROV-1; read-out: pTGI (converted)): 14.5 µM
growth at 0.1 µM (SNB-19 [15]): 89%
growth at 100 µM (ACHN): -93%
GI50 (SN12C [16]; read-out: GI50): 2.92 µM
CC50 (SN12C [16]; [23]): 36.1 µM
TGI (SN12C [16]; read-out: TGI): 10.7 µM
GI50 (SN12C [16]; read-out: pGI50 (converted)): 2.88 µM
CC50 (SN12C [16]; [24]): 36.3 µM
TGI (SN12C [16]; read-out: pTGI (converted)): 10.7 µM
growth at 1 µM (HCT-15): 95%
GI50 (K562 [17]; read-out: GI50): 3.74 µM
LC50 (K562 [17]; read-out: LC50): > 100 µM
TGI (K562 [17]; read-out: TGI): > 100 µM
GI50 (K562 [17]; read-out: pGI50 (converted)): 3.72 µM
LC50 (K562 [17]; read-out: pLC50 (converted)): > 100 µM
TGI (K562 [17]; read-out: pTGI (converted)): > 100 µM
growth at 1 µM (SN12C [18]): 91%
growth at 100 µM (OVCAR-3 [19]): -90%
growth at 0.01 µM (SNB-19 [20]): 94%
growth at 100 µM [21]: -93%
growth at 100 µM (MDA-MB-231): -93%
growth at 0.1 µM (MDA-MB-468 [22]): 96%
growth at 1 µM (NCI-H226): 83%
growth at 0.01 µM (MOLT-4): 104%
